Data as given in PMC9338265, “Pathogen-selective killing by guanylate-binding proteins as a molecular mechanism leading to inflammasome signaling” (Nature Communications, 2022).
Non-standard residues stand in square brackets, D forms with d. No end group written: not given here. *: point of attachment. FITC = O=C1OC2(c3ccc(O)cc3Oc3cc(O)ccc32)c2ccc(NC(=S)*)cc21; Ahx = NCCCCCC(=O)O

Key:
F. novicida [1] = format: cell-based, Francisella novicida
F. novicida [2] = test system: F. novicida
primary mouse BMDMs = assay: Cytotoxicity (SYTOX incorporation, LDH release); conditions: 10 µg/ml; IncuCyte live imaging; LDH after 24 h
[3] = test system: African green monkey kidney cells Vero; assay: Cytotoxicity (SYTOX incorporation, LDH release); conditions: 10 µg/ml; IncuCyte live imaging; LDH after 24 h
[4] = test system: human embryonic kidney cells HEK293; assay: Cytotoxicity (SYTOX incorporation, LDH release); conditions: 10 µg/ml; IncuCyte live imaging; LDH after 24 h
[5] = test system: human intestinal epithelial cells HT29; assay: Cytotoxicity (SYTOX incorporation, LDH release); conditions: 10 µg/ml; IncuCyte live imaging; LDH after 24 h
E. coli [6] = assay: Bacterial viability assay (CFU); format: cell-based, Escherichia coli; conditions: 6 h
F. novicida [7] = format: cell-based, Francisella novicida; remark: listed apart in the source
F. novicida [8] = format: cell-based, Francisella novicida; remark: listed apart in the source
E. coli [9] = assay: Peptide and protein binding assay with SYTOX staining; format: cell-based, Escherichia coli
N. meningitidis [10] = assay: as above; format: cell-based, Neisseria meningitidis; conditions: for Localization to and killing of N. meningitidis (SYTOX): 10 µg/mL FITC-peptide, 1 h or 6 h
F. novicida [11] = format: binding, Francisella novicida
N. meningitidis [12] = assay: Bacterial viability assay (CFU or O.D.); format: cell-based, Neisseria meningitidis; conditions: 6 h
[13] = test system: isogenic lpxA mutant of N. meningitidis, which lacks LOS; assay: Bacterial viability assay (O.D.); format: cell-based, Neisseria meningitidis; conditions: mGBP1 protein at 0.4, 4 or 40 µM, 6 h; mutant lacking LOS

GTDENTKKFNMPRLCIRKFFPKRKCFIFDR [GBP1^209–238]
SYTOX positive F. novicida, flow cytometry plot (F. novicida [1]): 9.2%
Viability of F. novicida (percentage of CFU in relation to solvent control) (F. novicida [2]): only GBP1^28–67 and WLBU2 exhibited
Cytotoxicity, SYTOX incorporation or LDH release, BMDMs (primary mouse BMDMs): None of the peptides exhibited cytotoxicity
Cytotoxicity, SYTOX incorporation or LDH release, Vero [3]: None of the peptides exhibited cytotoxicity
Cytotoxicity, SYTOX incorporation or LDH release, HEK293 [4]: None of the peptides exhibited cytotoxicity
Cytotoxicity, SYTOX incorporation or LDH release, HT29 [5]: None of the peptides exhibited cytotoxicity

LDILSAIQNPVVVVAIVGFYHTGKSYLMNKLAGKQKGFSL [GBP1^28–67]
half maximal inhibitory concentration (IC50), viability of F. novicida (F. novicida [2]; 6 h): 5.04 µg/mL
Cytotoxicity, SYTOX incorporation or LDH release, BMDMs (primary mouse BMDMs): None of the peptides exhibited cytotoxicity
Cytotoxicity, SYTOX incorporation or LDH release, Vero [3]: None of the peptides exhibited cytotoxicity
Cytotoxicity, SYTOX incorporation or LDH release, HEK293 [4]: None of the peptides exhibited cytotoxicity
Cytotoxicity, SYTOX incorporation or LDH release, HT29 [5]: None of the peptides exhibited cytotoxicity

RRWVRRVRRWVRRVVRVVRRWVRR [WLBU2, reference compound]
Viability of E. coli (percentage of CFU in relation to solvent control) (E. coli [6]; peptide at 0.1, 1 or 10 µg/ml): led to death of the bacteria
SYTOX positive F. novicida, flow cytometry plot (F. novicida [1]): 90.7%
Uptake of SYTOX by F. novicida, quantification by flow cytometry (F. novicida [1]): induced a significant uptake of SYTOX
Morphology of F. novicida by SEM and TEM (F. novicida [7]): apoptosis-like blebbing and apoptosis-like bodies
Viability of F. novicida (percentage of CFU in relation to solvent control) (F. novicida [2]): exhibited, in a dose-dependent manner, antibacterial activity

LLKQGFQNESLQLRQEIEKI [GBP1^558–577]
SYTOX positive F. novicida, flow cytometry plot (F. novicida [1]): 4.7%
Viability of F. novicida (percentage of CFU in relation to solvent control) (F. novicida [2]): only GBP1^28–67 and WLBU2 exhibited
Cytotoxicity, SYTOX incorporation or LDH release, BMDMs (primary mouse BMDMs): None of the peptides exhibited cytotoxicity
Cytotoxicity, SYTOX incorporation or LDH release, Vero [3]: None of the peptides exhibited cytotoxicity
Cytotoxicity, SYTOX incorporation or LDH release, HEK293 [4]: None of the peptides exhibited cytotoxicity
Cytotoxicity, SYTOX incorporation or LDH release, HT29 [5]: None of the peptides exhibited cytotoxicity

TFYKPGGYYLFLQRKQELEKKYIQTPGKG [GBP1^424–452]
SYTOX positive F. novicida, flow cytometry plot (F. novicida [1]): 11.4%
Viability of F. novicida (percentage of CFU in relation to solvent control) (F. novicida [2]): only GBP1^28–67 and WLBU2 exhibited
Cytotoxicity, SYTOX incorporation or LDH release, BMDMs (primary mouse BMDMs): None of the peptides exhibited cytotoxicity
Cytotoxicity, SYTOX incorporation or LDH release, Vero [3]: None of the peptides exhibited cytotoxicity
Cytotoxicity, SYTOX incorporation or LDH release, HEK293 [4]: None of the peptides exhibited cytotoxicity
Cytotoxicity, SYTOX incorporation or LDH release, HT29 [5]: None of the peptides exhibited cytotoxicity

IRILEQIAQPLVVVAIVGLYRTGKSYLMNRLAGRNHGFSL [GBP3^22–61]
Morphology of F. novicida by SEM and TEM (F. novicida [7]): bacterial membrane damage and bacteriolysis of F. novicida
Viability of F. novicida (percentage of CFU in relation to solvent control) (F. novicida [2]): bacterial killing in a dose-dependent manner

{FITC}-[Ahx]LDILSAIQNPVVVVAIVGFYHTGKSYLMNKLAGKQKGFSL [FITC-GBP1^28–67]
Localization to bacteria and uptake of SYTOX, F. novicida (F. novicida [8]): localized to and induced uptake of SYTOX in F. novicida
Localization to bacteria and uptake of SYTOX, E. coli (E. coli [9]; 10 µg/mL FITC-peptide, 1 h or 6 h): this did not occur with E. coli
Localization to and killing of N. meningitidis (SYTOX) (N. meningitidis [10]): localized to and killed N. meningitidis
Binding to F. novicida exposed to NaCl, saponin or sarcosyl before addition of peptide (F. novicida [11]): did not impair the binding
FITC signal remaining on F. novicida already bound to peptide after exposure to NaCl, saponin or sarcosyl (F. novicida [11]): loss of FITC signal

LDILSAIQNPV [GBP1^28–38]
Viability of E. coli (percentage of CFU in relation to solvent control) (E. coli [6]; peptide at 10 µg/ml): unable to kill E. coli
Viability of N. meningitidis (percentage of CFU in relation to solvent control) (N. meningitidis [12]; peptide at 10 µg/ml): killed F. novicida and N. meningitidis similar to that observed for GBP1^28–67
Viability of F. novicida (percentage of CFU in relation to solvent control) (F. novicida [2]): killed F. novicida and N. meningitidis similar to that observed for GBP1^28–67

FYHTGKSYLMNKLAGKQKGFSL [GBP1^46–67]
Viability of N. meningitidis (percentage of CFU in relation to solvent control) (N. meningitidis [12]; peptide at 10 µg/ml): little or no antimicrobial activity
Viability of F. novicida (percentage of CFU in relation to solvent control) (F. novicida [2]): little or no antimicrobial activity

{FITC}-[Ahx]KLIKLLDRLASRSVS [FITC-control peptide, reference compound]
Localization to and killing of N. meningitidis (SYTOX) (N. meningitidis [10]): this did not occur

VVVVAIVGFYHTGKSYLMNKLAGKQKGFSL [GBP1^38–67]
Viability of N. meningitidis (percentage of CFU in relation to solvent control) (N. meningitidis [12]; peptide at 10 µg/ml): little or no antimicrobial activity
Viability of F. novicida (percentage of CFU in relation to solvent control) (F. novicida [2]): little or no antimicrobial activity

B1: mGBP1 (protein, UniProt Q01514 1-589, looked up)
Guanylate-binding protein 1: MASEIHMSEPMCLIENTEAQLVINQEALRILSAITQPVVVVAIVGLYRTGKSYLMNKLAGKRTGFSLGSTVQSHTKGIWMWCVPHPKKAGQTLVLLDTEGLEDVEKGDNQNDCWIFALAVLLSSTFIYNSIGTINQQAMDQLHYVTELTDLIKSKSSPDQSDVDNSANFVGFFPIFVWTLRDFSLDLEFDGESITPDEYLETSLALRKGTDENTKKFNMPRLCIRKFFPKRKCFIFDRPGDRKQLSKLEWIQEDQLNKEFVEQVAEFTSYIFSYSGVKTLSGGITVNGPRLKSLVQTYVSAICSGELPCMENAVLTLAQIENSAAVQKAITYYEEQMNQKIHMPTETLQELLDLHRTCEREAIEVFMKNSFKDVDQKFQEELGAQLEAKRDAFVKKNMDMSSAHCSDLLEGLFAHLEEEVKQGTFYKPGGYYLFLQRKQELEKKYIQTPGKGLQAEVMLRKYFESKEDLADTLLKMDQSLTEKEKQIEMERIKAEAAEAANRALAEMQKKHEMLMEQKEQSYQEHMKQLTEKMEQERKELMAEQQRIISLKLQEQERLLKQGFQNESLQLRQEIEKIKNMPPPRSCTIL
Viability of N. meningitidis (percentage of CFU in relation to solvent control) (N. meningitidis [12]; mGBP1 protein at 0.4, 4 or 40 µM): killed N. meningitis in a dose-dependent manner
Viability of WT N. meningitidis (percentage of O.D. in relation to solvent control) (N. meningitidis [12]; mGBP1 protein at 0.4, 4 or 40 µM, WT strain): can kill both WT and ΔlpxA mutant strains
Viability of N. meningitidis ΔlpxA mutant (percentage of O.D. in relation to solvent control) [13]: can kill both WT and ΔlpxA mutant strains
Localization to bacteria and uptake of SYTOX, F. novicida (F. novicida [8]): localized to and induced uptake of SYTOX in F. novicida
Localization to bacteria and uptake of SYTOX, E. coli (E. coli [9]; 40 µM mGBP1 protein, 6 h): this did not occur with E. coli
Localization to bacteria and uptake of SYTOX, N. meningitidis (N. meningitidis [10]; 40 µM mGBP1, 6 h): localized to N. meningitidis, resulting in the uptake of SYTOX
Morphology of F. novicida by SEM (F. novicida [7]): disruption of the membrane integrity, membrane rupture, and expulsion of intracellular content
Viability of F. novicida (percentage of CFU in relation to solvent control) (F. novicida [2]): killed F. novicida in a dose-dependent manner
